Laboratory results reported in patent US11739074B2, “Ras inhibitors” (Revolution Medicines, Inc., priority 2019, dated 2023).
Read-outs that look alike come from different tables or passages of the source.

Key:
[1] = system: AsPC-1 (K-Ras G12D); test: CellTiter-Glo cell viability assay, AsPC-1; type: cell-based; details: Homo sapiens, ASPC1, 120 h
Experimental: Determination of Cell Viability in RAS Mutant Cancer Cell Lines
Protocol: CellTiter-Glo® Cell Viability Assay
Note—The following protocol describes a procedure for monitoring cell viability of K-Ras mutant cancer cell lines in response to a compound of the invention. Other RAS isoforms may be employed, though the number of cells to be seeded will vary based on cell line used.
Test compounds (132.5 nL) were directly dispensed into the assay plates containing cells. […] On day 5, assay plates and their contents were equilibrated to room temperature for approximately 30 minutes. […] Luminescence was measured using the PerkinElmer Enspire. Data were normalized by the following: (Sample signal/Avg. DMSO)*100. The data were fit using a four-parameter logistic fit.

[2] = system: AsPC-1 (K-Ras G12D); test: Potency assay: pERK in AsPC-1 cells; type: cell-based; details: Homo sapiens
[3] = AsPC-1, K-Ras G12D, 5-day treatment, read-out: AsPC-1 Cell Viability IC50
[4] = ASPC1, AsPC-1 cells, K-Ras G12D, read-out: pERK EC50 (AsPC-1 KRAS G12D)
[5] = read-out: AsPC-1 Cell Viability IC50, AsPC-1, K-Ras G12D, 5-day treatment
[6] = ASPC1, read-out: pERK EC50 (AsPC-1 KRAS G12D)

Row | Structure (SMILES) | IC50 [1, 3] | EC50 [2, 4] | IC50 [1, 5] | EC50 [2, 6]
1 | CCn1c(-c2cccnc2[C@H](C)OC)c2c3cc(ccc31)-c1cc(O)cc(c1)C[C@H](NC(=O)[C@H](C(C)C)N(C)C(=O)C1CCN(S(=O)(=O)[C@@H]3CN3C)CC1)C(=O)N1CCC[C@H](N1)C(=O)OCC(C)(C)C2 (single isomer, unassigned) [Compound 119] | 1 to 10 µM | < 5 µM |  | 
2 | CCn1c(-c2cccnc2[C@H](C)OC)c2c3cc(ccc31)-c1cc(O)cc(c1)C[C@H](NC(=O)[C@H](C1CCCC1)N(C)C(=O)CN(C)C(=O)[C@@H]1N[C@@H]1C1(C#N)CC1)C(=O)N1CCC[C@H](N1)C(=O)OCC(C)(C)C2 (single isomer, unassigned) [Compound 308] | 1 to 10 µM | < 5 µM |  | 
3 | CCn1c(-c2cnccc2COC)c2c3cc(ccc31)-c1cccc(c1)C[C@H](NC(=O)[C@H](C(C)C)N(C)C(=O)CCN=C=NC1(COC)CC1)C(=O)N1CCC[C@H](N1)C(=O)OCC(C)(C)C2 [72 A and B] | 1 to 10 µM | < 5 µM |  | 
4 | CCn1c(-c2cnccc2COC)c2c3cc(ccc31)-c1cccc(c1)C[C@H](NC(=O)[C@H](C(C)C)N(C)C(=O)CCN=C=NC(C)(C)C)C(=O)N1CCC[C@H](N1)C(=O)OCC(C)(C)C2 [79 A and B] | 1 to 10 µM | < 5 µM |  | 
5 | CCn1c(-c2cnccc2COC)c2c3cc(ccc31)-c1cc(O)cc(c1)C[C@H](NC(=O)[C@H](C(C)C)N(C)C(=O)CN(C)C(=O)[C@H]1N[C@H]1C(=O)OC)C(=O)N1CCC[C@H](N1)C(=O)OCC(C)(C)C2 [Compound 51] |  |  | > 10 µM | < 5 µM
6 | CCn1c(-c2cccnc2[C@H](C)OC)c2c3cc(ccc31)-c1cccc(c1)C[C@H](NC(=O)[C@H](C(C)C)N(C)C(=O)CCN=C=NCCOC)C(=O)N1CCC[C@H](N1)C(=O)OCC(C)(C)C2 [Compound 74] | 1 to 10 µM | < 5 µM |  | 
7 | CCn1c(-c2cccnc2[C@H](C)OC)c2c3cc(ccc31)-c1cccc(c1)C[C@H](NC(=O)[C@H](C(C)C)N(C)C(=O)[C@H]1C[C@H](N=C=NCCOC)C1)C(=O)N1CCC[C@H](N1)C(=O)OCC(C)(C)C2 [Compound 78] | 1 to 10 µM | < 5 µM |  | 
8 | CCn1c(-c2cccnc2[C@H](C)OC)c2c3cc(ccc31)-c1cc(O)cc(c1)C[C@H](NC(=O)[C@H](C(C)C)N(C)C(=O)c1ncc(NC(=O)[C@H]3CN3)n1C)C(=O)N1CCC[C@H](N1)C(=O)OCC(C)(C)C2 [Compound 84] | 1 to 10 µM | < 5 µM |  | 
9 | CCn1c(-c2cccnc2[C@H](C)OC)c2c3cc(ccc31)-c1cc(O)cc(c1)C[C@H](NC(=O)[C@H](C(C)C)N(C)C(=O)C1CCN(C(=O)[C@H]3CN3)CC1)C(=O)N1CCC[C@H](N1)C(=O)OCC(C)(C)C2 [Compound 86] | 1 to 10 µM | < 5 µM |  | 
10 | CCn1c(-c2cccnc2[C@H](C)OC)c2c3cc(ccc31)-c1cc(O)cc(c1)C[C@H](NC(=O)[C@H](C(C)C)N(C)C(=O)C1CCN(C(=O)[C@@H]3CN3)CC1)C(=O)N1CCC[C@H](N1)C(=O)OCC(C)(C)C2 [Compound 89] | > 10 µM | < 5 µM |  | 
11 | CCn1c(-c2cnccc2COC)c2c3cc(ccc31)-c1cc(O)cc(c1)C[C@H](NC(=O)[C@H](C(C)C)N(C)C(=O)CN(C)C(=O)[C@H]1N[C@H]1c1ccc(OC)cc1)C(=O)N1CCC[C@H](N1)C(=O)OCC(C)(C)C2 [Compound 93] |  |  | > 10 µM | < 5 µM
12 | CCn1c(-c2cnccc2COC)c2c3cc(ccc31)-c1cc(O)cc(c1)C[C@H](NC(=O)[C@H](C(C)C)N(C)C(=O)CN(C)C(=O)[C@H]1N[C@@H]1c1ccc(OC)cc1)C(=O)N1CCC[C@H](N1)C(=O)OCC(C)(C)C2 [Compound 97] |  |  | 1 to 10 µM | < 5 µM
13 | CCn1c(-c2cnccc2COC)c2c3cc(ccc31)-c1cc(O)cc(c1)C[C@H](NC(=O)[C@H](C(C)C)N(C)C(=O)CN(C)C(=O)[C@H]1N[C@H]1C1CC1)C(=O)N1CCC[C@H](N1)C(=O)OCC(C)(C)C2 [Compound 104] |  |  | 1 to 10 µM | < 5 µM
14 | CCn1c(-c2cnccc2COC)c2c3cc(ccc31)-c1cc(O)cc(c1)C[C@H](NC(=O)[C@H](C(C)C)N(C)C(=O)CN(C)C(=O)[C@@H]1N[C@@H]1C)C(=O)N1CCC[C@H](N1)C(=O)OCC(C)(C)C2 [Compound 105] |  |  | 1 to 10 µM | < 5 µM
15 | CCn1c(-c2cccnc2[C@H](C)OC)c2c3cc(ccc31)-c1cc(O)cc(c1)C[C@H](NC(=O)[C@H](C(C)C)N(C)C(=O)[C@H]1CN1)C(=O)N1CCC[C@H](N1)C(=O)OCC(C)(C)C2 [Compound 112] | 1 to 10 µM | < 5 µM |  | 
16 | CCn1c(-c2cccnc2[C@H](C)OC)c2c3cc(ccc31)-c1cc(O)cc(c1)C[C@H](NC(=O)[C@H](C(C)C)N1CCC3(CCN(C(=O)[C@@H]4CN4)C3)C1=O)C(=O)N1CCC[C@H](N1)C(=O)OCC(C)(C)C2 (stereo partly shown) [Compound 113] | 1 to 10 µM | < 5 µM |  | 

Row | Structure (SMILES) | IC50 [1, 3] | EC50 [2, 4] | IC50 [1, 5] | EC50 [2, 6]
17 | CCn1c(-c2cccnc2[C@H](C)OC)c2c3cc(ccc31)-c1cc(O)cc(c1)C[C@H](NC(=O)[C@H](C(C)C)N(C)C(=O)[C@@H](C)N(C)C(=O)[C@H]1CN1)C(=O)N1CCC[C@H](N1)C(=O)OCC(C)(C)C2 [Compound 114] |  |  | 1 to 10 µM | < 5 µM
18 | CCn1c(-c2cnccc2COC)c2c3cc(ccc31)-c1cc(O)cc(c1)C[C@H](NC(=O)[C@H](C(C)C)N(C)C(=O)CCNC1=NCCO1)C(=O)N1CCC[C@H](N1)C(=O)OCC(C)(C)C2 [Compound 120] | 1 to 10 µM | < 5 µM |  | 
19 | CCn1c(-c2cccnc2[C@H](C)OC)c2c3cc(ccc31)-c1cccc(c1)C[C@H](NC(=O)[C@H](C(C)C)N1CC[C@@H](CN=C=NCCOC)C1)C(=O)N1CCC[C@H](N1)C(=O)OCC(C)(C)C2 [Compound 121] | 1 to 10 µM | < 5 µM |  | 
20 | CCn1c(-c2cccnc2[C@H](C)OC)c2c3cc(ccc31)-c1cc(O)cc(c1)C[C@H](NC(=O)[C@H](C(C)C)N(C)C(=O)c1ccc(NC(=O)[C@H]3CN3)cn1)C(=O)N1CCC[C@H](N1)C(=O)OCC(C)(C)C2 [Compound 127] | > 10 µM | < 5 µM |  | 
21 | CCn1c(-c2cccnc2[C@H](C)OC)c2c3cc(ccc31)-c1cc(O)cc(c1)C[C@H](NC(=O)[C@H](C(C)C)N1CC[C@@H](NC(=O)[C@@H]3CN3)C1=O)C(=O)N1CCC[C@H](N1)C(=O)OCC(C)(C)C2 [Compound 129] | 1 to 10 µM | < 5 µM |  | 
22 | CCn1c(-c2cccnc2[C@H](C)OC)c2c3cc(ccc31)-c1cc(O)cc(c1)C[C@H](NC(=O)[C@H](C(C)C)N1CC[C@@]3(CCN(C[C@@H]4CN4)C3)C1=O)C(=O)N1CCC[C@H](N1)C(=O)OCC(C)(C)C2 [Compound 138] | > 10 µM | < 5 µM |  | 
23 | CCn1c(-c2cccnc2[C@H](C)OC)c2c3cc(ccc31)-c1cc(O)cc(c1)C[C@H](NC(=O)[C@H](C(C)C)N(C)C(=O)CNC(=O)[C@H]1CN1)C(=O)N1CCC[C@H](N1)C(=O)OCC(C)(C)C2 [Compound 140] |  |  | 1 to 10 µM | < 5 µM
24 | CCn1c(-c2cccnc2[C@H](C)OC)c2c3cc(ccc31)-c1cc(O)cc(c1)C[C@H](NC(=O)[C@H](C(C)C)N(C)C(=O)CNC(=O)[C@@H]1CN1)C(=O)N1CCC[C@H](N1)C(=O)OCC(C)(C)C2 [Compound 147] |  |  | 1 to 10 µM | < 5 µM
25 | CCn1c(-c2cccnc2[C@H](C)OC)c2c3cc(ccc31)-c1cc(O)cc(c1)C[C@H](NC(=O)[C@H](C(C)C)N1CC[C@@]3(CCN(C(=O)[C@H]4CN4)C3)C1=O)C(=O)N1CCC[C@H](N1)C(=O)OCC(C)(C)C2 [Compound 149] | 1 to 10 µM | < 5 µM |  | 
26 | CCn1c(-c2cccnc2[C@H](C)OC)c2c3cc(ccc31)-c1cc(O)cc(c1)C[C@H](NC(=O)[C@H](C(C)C)N(C)C(=O)[C@H]1CCCN1C(=O)[C@@H]1CN1)C(=O)N1CCC[C@H](N1)C(=O)OCC(C)(C)C2 [Compound 151] |  |  | 1 to 10 µM | < 5 µM
27 | CCn1c(-c2cccnc2[C@H](C)OC)c2c3cc(ccc31)-c1cc(O)cc(c1)C[C@H](NC(=O)[C@H](C(C)C)N(C)C(=O)[C@H]1CCCN1C(=O)[C@H]1CN1)C(=O)N1CCC[C@H](N1)C(=O)OCC(C)(C)C2 [Compound 152] |  |  | 1 to 10 µM | < 5 µM
28 | CCn1c(-c2cccnc2[C@H](C)OC)c2c3cc(ccc31)-c1cc(O)cc(c1)C[C@H](NC(=O)[C@H](C(C)C)N(C)C(=O)[C@H]1CC[C@@H](C)N1C(=O)[C@@H]1CN1)C(=O)N1CCC[C@H](N1)C(=O)OCC(C)(C)C2 [Compound 153] |  |  | 1 to 10 µM | < 5 µM
29 | CCn1c(-c2cccnc2[C@H](C)OC)c2c3cc(ccc31)-c1cc(O)cc(c1)C[C@H](NC(=O)[C@H](C(C)C)N(C)C(=O)[C@H]1CC[C@@H](C)N1C(=O)[C@H]1CN1)C(=O)N1CCC[C@H](N1)C(=O)OCC(C)(C)C2 [Compound 154] |  |  | 1 to 10 µM | < 5 µM
30 | CCn1c(-c2cccnc2[C@H](C)OC)c2c3cc(ccc31)-c1cc(O)cc(c1)C[C@H](NC(=O)[C@H](C(C)C)N(C)C(=O)[C@H]1CCN1C(=O)[C@@H]1CN1)C(=O)N1CCC[C@H](N1)C(=O)OCC(C)(C)C2 [Compound 157] | 1 to 10 µM | < 5 µM |  | 
31 | CCn1c(-c2cccnc2[C@H](C)OC)c2c3cc(ccc31)-c1cc(O)cc(c1)C[C@H](NC(=O)[C@H](C(C)C)N(C)C(=O)[C@H]1CCN1C(=O)[C@H]1CN1)C(=O)N1CCC[C@H](N1)C(=O)OCC(C)(C)C2 [Compound 158] | 1 to 10 µM | < 5 µM |  | 
32 | CCn1c(-c2cccnc2[C@H](C)OC)c2c3cc(ccc31)-c1cc(O)cc(c1)C[C@H](NC(=O)[C@H](C(C)C)N(C)C(=O)CN(C)C(=O)[C@H]1CN1CCO)C(=O)N1CCC[C@H](N1)C(=O)OCC(C)(C)C2 (stereo partly shown) [Compound 161] |  |  | 1 to 10 µM | < 5 µM
